In patent US9221875B2, “Amphiphilic peptides for treatment of keratitis” (Agency for Science, Technology and Research, priority 2013, dated 2015):
≈ marks a conversion by molar mass, not a printed value. Peptide text beside a SMILES is read from it.

Columns and labels:
C. albicans = conditions: 42 h
E. coli = conditions: 18 h
[1] = system: 5 microorganisms tested (S. epidermidis, S. aureus, E. coli, P. aeruginosa, C. albicans); test: Mean MIC over the panel and selectivity index (Example 1); type: cell-based
Protocol: Red blood cells suspension incubated with PBS was used as negative control.

S. epidermidis = conditions: 18 h
P. aeruginosa = conditions: 18 h
S. aureus = conditions: 18 h
C. albicans keratitis = test: Contact lens-associated C. albicans keratitis mouse model
[2] = topical eye drops, peptides 3000 mg/L, amphotericin B 1000 mg/L

N=C(N)NCCC[C@H](NC(=O)[C@H](Cc1ccccc1)NC(=O)[C@H](CCCCN)NC(=O)[C@H](Cc1ccccc1)NC(=O)[C@H](CCCNC(=N)N)NC(=O)[C@@H](N)Cc1ccccc1)C(=O)N[C@@H](Cc1ccccc1)C(=O)N[C@@H](CCCCN)C(N)=O [(FRFK)2-NH2] (H-FRFKFRFK-NH2; N-terminus assumed)
MIC C. albicans (C. albicans): 62.5 µg/mL (≈ 53.2 µM)
MIC E. coli (E. coli): 15.6 µg/mL (≈ 13.3 µM)
GM, geometric mean of MIC values for the 5 microorganisms tested [1]: 79.7 µg/mL
MIC S. epidermidis (S. epidermidis): 7.8 µg/mL (≈ 6.64 µM)
MIC P. aeruginosa (P. aeruginosa): 62.5 µg/mL (≈ 53.2 µM)
MIC S. aureus (S. aureus): 250 µg/mL (≈ 213 µM)

CC[C@H](C)[C@H](N)C(=O)N[C@@H](CCCNC(=N)N)C(=O)N[C@H](C(=O)N[C@@H](CCCNC(=N)N)C(=O)N[C@H](C(=O)N[C@@H](CCCNC(=N)N)C(=O)N[C@H](C(=O)N[C@@H](CCCNC(=N)N)C(N)=O)[C@@H](C)CC)[C@@H](C)CC)[C@@H](C)CC [(IRIR)2-NH2] (H-IRIRIRIR-NH2; N-terminus assumed)
MIC C. albicans (C. albicans): 15.6 µg/mL (≈ 14.3 µM)
MIC E. coli (E. coli): 7.8 µg/mL (≈ 7.13 µM)
GM, geometric mean of MIC values for the 5 microorganisms tested [1]: 13.3 µg/mL
MIC S. epidermidis (S. epidermidis): 3.9 µg/mL (≈ 3.56 µM)
MIC P. aeruginosa (P. aeruginosa): 7.8 µg/mL (≈ 7.13 µM)
MIC S. aureus (S. aureus): 31.3 µg/mL (≈ 28.6 µM)

CC[C@H](C)[C@H](N)C(=O)N[C@@H](CCCNC(=N)N)C(=O)N[C@H](C(=O)N[C@@H](CCCCN)C(=O)N[C@H](C(=O)N[C@@H](CCCNC(=N)N)C(=O)N[C@H](C(=O)N[C@@H](CCCCN)C(N)=O)C(C)C)[C@@H](C)CC)C(C)C [(IRVK)2-NH2] (H-IRVKIRVK-NH2; N-terminus assumed)
MIC C. albicans (C. albicans): 7.8 µg/mL (≈ 7.72 µM)
MIC E. coli (E. coli): 62.5 µg/mL (≈ 61.9 µM)
GM, geometric mean of MIC values for the 5 microorganisms tested [1]: 78.1 µg/mL
MIC S. epidermidis (S. epidermidis): 7.8 µg/mL (≈ 7.72 µM)
MIC P. aeruginosa (P. aeruginosa): 62.5 µg/mL (≈ 61.9 µM)
MIC S. aureus (S. aureus): 250 µg/mL (≈ 247 µM)

CC(C)[C@H](N)C(=O)N[C@@H](CCCNC(=N)N)C(=O)N[C@H](C(=O)N[C@@H](CCCCN)C(=O)N[C@H](C(=O)N[C@@H](CCCNC(=N)N)C(=O)N[C@H](C(=O)N[C@@H](CCCCN)C(N)=O)C(C)C)C(C)C)C(C)C [(VRVK)2-NH2] (H-VRVKVRVK-NH2; N-terminus assumed)
MIC C. albicans (C. albicans): 15.6 µg/mL (≈ 15.9 µM)
MIC E. coli (E. coli): 250 µg/mL (≈ 255 µM)
MIC S. epidermidis (S. epidermidis): 62.5 µg/mL (≈ 63.6 µM)
MIC P. aeruginosa (P. aeruginosa): >500 µg/mL
MIC S. aureus (S. aureus): >500 µg/mL

N=C(N)NCCC[C@H](NC(=O)[C@H](Cc1c[nH]c2ccccc12)NC(=O)[C@H](CCCCN)NC(=O)[C@H](Cc1c[nH]c2ccccc12)NC(=O)[C@H](CCCNC(=N)N)NC(=O)[C@@H](N)Cc1c[nH]c2ccccc12)C(=O)N[C@@H](Cc1c[nH]c2ccccc12)C(=O)N[C@@H](CCCCN)C(N)=O [(WRWK)2-NH2] (H-WRWKWRWK-NH2; N-terminus assumed)
MIC C. albicans (C. albicans): 250 µg/mL (≈ 188 µM)
MIC E. coli (E. coli): 15.6 µg/mL (≈ 11.7 µM)
GM, geometric mean of MIC values for the 5 microorganisms tested [1]: 92.2 µg/mL
MIC S. epidermidis (S. epidermidis): 7.8 µg/mL (≈ 5.86 µM)
MIC P. aeruginosa (P. aeruginosa): 125 µg/mL (≈ 93.9 µM)
MIC S. aureus (S. aureus): 62.5 µg/mL (≈ 47 µM)

C[C@@H]1[C@H](O)[C@@H](C)/C=C/C=C/C=C/C=C/C=C/C=C/C=C/[C@H](O[C@@H]2O[C@H](C)[C@@H](O)[C@H](N)[C@@H]2O)C[C@@H]2O[C@](O)(C[C@@H](O)C[C@@H](O)[C@H](O)CC[C@@H](O)C[C@@H](O)CC(=O)O[C@H]1C)C[C@H](O)[C@H]2C(=O)O [amphotericin B, reference compound]
fungal cells eradicated from the biofilms compared to the untreated control group (C. albicans keratitis; C. albicans counts in mice cornea, agar plating): ~90%
depth of hyphal invasion into the cornea, PAS histology (C. albicans keratitis; [2]): reduced the maximal depth of hyphal invasion
resolution of the keratitis infection (eye appearance) (C. albicans keratitis; [2]): significant resolution of the keratitis infection
clinical scores of mice corneas (slit lamp) (C. albicans keratitis; topical eye drops, peptides 3000 mg/L, amphotericin B 1000 mg/L, P<0.01): significantly lower than that in the control group
